This is an account of results in patent US20050075361A1 (priority 2002, published 2005).

The conditions of series [1]: cited from earlier work.
Series [2] relates to male Sprague-Dawley rats. The conditions noted are these: rat, in vivo.
For series [3] the following is noted: parenteral, weight basis; cited from earlier work.
The conditions of series [4]: cited from earlier work. The source holds these as a separate data set.
The mark [5] stands for this setting: intravenous, single dose of about 0.3 mg.

SMILES strings stand for the structures. Where two headings read alike, the source gives them in different places. Some results are limits rather than exact numbers.

Take `CO[C@@]12CC[C@@]3(C[C@@H]1[C@](C)(O)C(C)(C)C)[C@H]1Cc4ccc(O)c5c4[C@@]3(CCN1CC1CC1)[C@H]2O5.Cl` [Buprenorphine HCl, buprenorphine hydrochloride]: the “mean duration of analgesia” value in series [1] (single intramuscular or intravenous dose of 0.2 to 0.3 mg or 2 to 4 μg/kg) is “six”. Besides, in series [2], the Analgesic duration was 5 h and the “duration of analgesic action” value was 3 to 5 h.
As to `CO[C@@]12CCC3(C[C@@H]1C(C)(O)C(C)(C)C)[C@H]1Cc4ccc(O)c5c4[C@@]3(CCN1CC1CC1)[C@H]2O5` (stereo partly drawn) [Buprenorphine base, (5α,7α(S)-17-cyclopropyl-methyl)-α-(1,1-dimethylethyl)-4,5-epoxy-18,19-dihydro-3-hydroxy-6-methoxy-α-methyl-6,14-ethenomorphinan-7-methanol], in series [2], the Analgesic duration is recorded as 48; 48; 50 h and the “duration of analgesic action” value is 48 to 50 h. Further, in series [2] (sc), the Analgesic duration is reported as 48; 50; 48 h and the duration of action is 48 to 50 h.
Regarding `CO[C@@]12CCC3(C[C@@H]1C(C)(O)C(C)(C)C)[C@H]1Cc4ccc(O)c5c4[C@@]3(CCN1CC1CC1)[C@H]2O5` (stereo partly drawn) [Buprenorphine, (5α,7α(S)-17-cyclopropyl-methyl)-α-(1,1-dimethylethyl)-4,5-epoxy-18,19-dihydro-3-hydroxy-6-methoxy-α-methyl-6,14-ethenomorphinan-7-methanol], in series [1] (intramuscular or intravenous injection), the duration of action is 6 to 8 h. For the same compound, in series [3], the “analgesic potency relative to meperidine” value is “about 600 times” and the “analgesic potency relative to pentazocine” value is given as “about 200 times”. Besides, in series [4] (0.4 mg sublingual dose), the Cmax was 0.5 ± 0.06 ng/mL, the time of peak concentration (Tmax) is 3.5 ± 0.667 h and the systemic availability was 57.7±6%. For the same compound, in series [4] (conscious postoperative patients), the Total plasma clearance entry is “approximately 0.28 L/minute”. The “mean peak plasma buprenorphine concentration” value in series [4] (intramuscular second 0.3-mg dose 3 hours after initial intravenous dose) is given as “about 3.6 ng/mL”. The plasma concentration result in series [4] (intramuscular second 0.3-mg dose, after about 3 hours) is listed as “about 0.4 ng/mL”. The plasma concentration entry in series [4] (intravenous about 0.3 mg, after about 5 minutes) was “about 9 ng/mL”. Also, the plasma concentration result in series [4] (intravenous about 0.3 mg, after about 3 hours) is “about 0.4 ng/mL”. In series [4] (setting [5]), the “mean peak plasma drug concentration” value was “about 18 ng/mL” and the “time of peak plasma concentration” value was no more than 2 min.

Usually Cmax stands for the maximum level reached in the sampled fluid or tissue. In general, Tmax refers to the time at which the peak concentration occurs.
